# What was measured:
# [1] = molecular target: T1, human TGR5 (Homo sapiens, UniProt Q8TDU6); assay: cAMP production increasing activity in human TGR5 expressing CHO cells; assay type: cell-based; conditions: test compound 1 μM, 30 min; 1 μM lithocholic acid = 100%, no addition = 0%; average of 3 groups
# T1 construct: expressed in transfected cells; host or cells: CHO cells
# T1 sequence (Q8TDU6 1-330): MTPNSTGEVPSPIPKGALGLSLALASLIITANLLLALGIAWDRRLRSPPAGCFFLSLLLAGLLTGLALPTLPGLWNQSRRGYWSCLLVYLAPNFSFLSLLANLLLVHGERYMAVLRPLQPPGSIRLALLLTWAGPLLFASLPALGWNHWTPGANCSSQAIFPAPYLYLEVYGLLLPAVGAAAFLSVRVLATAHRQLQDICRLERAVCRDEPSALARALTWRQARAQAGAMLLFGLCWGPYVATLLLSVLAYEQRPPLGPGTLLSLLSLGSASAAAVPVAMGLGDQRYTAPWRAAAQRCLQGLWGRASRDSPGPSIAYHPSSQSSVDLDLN
# Procedure: As the assay buffer, Hank's balanced salt solution (HBSS, Invitrogen) supplemented with 0.1% bovine serum albumin (BSA, Sigma) and 0.5 mM 3-isobutyl-1-methylxanthine (IBMX, Sigma) was used. A test compound sample (1 μM) diluted with the assay buffer was added to the cells. The cells were incubated at 37° C. for 30 min. and the supernatant was suctioned. The intracellular cAMP amount increased by the stimulation of the test compound was quantitatively determined using a HitHunter™ EFC Cyclic AMP Chemiluminescence Assay Kit (ABI) kit.
# [2] = test system: mock CHO cells free of human TGR5 expression; assay: cAMP production increasing activity in mock CHO cells free of human TGR5 expression; assay type: cell-based; conditions: test compounds 2 μM, average of 3 groups
# Procedure: (§1) As the assay buffer, Hank's balanced salt solution (HBSS, Invitrogen) supplemented with 0.1% bovine serum albumin (BSA, Sigma) and 0.2 mM 3-isobutyl-1-methylxanthine (IBMX, Sigma) was used. The cells were washed twice with the assay buffer and preincubated at 37° C. for 30 min. The cells were washed twice, and test compound samples (10 μM) diluted with the assay buffer to various concentrations were added. The cells were incubated at 37° C. for 20 min. The culture supernatant was discarded, and the cAMP production amount was measured using a cAMP Screen System (ABI).
# [3] = molecular target: T2, rabbit TGR5 (Oryctolagus cuniculus, UniProt Q862A8); assay: cAMP production increasing activity in rabbit TGR5 expressing CHO cells; assay type: cell-based; conditions: Experimental Example 6; 2 μM; 10 μM lithocholic acid = 100%; average of 3 groups
# T2 construct: expressed in transfected cells; host or cells: CHO cells
# T2 sequence (Q862A8 1-330): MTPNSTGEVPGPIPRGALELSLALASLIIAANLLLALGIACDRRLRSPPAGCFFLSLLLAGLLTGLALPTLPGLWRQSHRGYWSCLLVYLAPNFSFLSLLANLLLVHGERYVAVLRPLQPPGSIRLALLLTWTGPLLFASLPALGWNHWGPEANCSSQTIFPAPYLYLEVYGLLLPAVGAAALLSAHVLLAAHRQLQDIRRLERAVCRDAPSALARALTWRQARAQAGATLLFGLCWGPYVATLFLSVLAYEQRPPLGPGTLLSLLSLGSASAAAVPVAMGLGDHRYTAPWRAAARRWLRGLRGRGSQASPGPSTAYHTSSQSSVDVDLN
# Procedure: as §1, with “twice” for “twice,”, “(2” for “(10”, “buffer” for “buffer to various concentrations”
# [4] = test system: NCI-H716 cells; assay: intracellular cAMP production increasing action in NCI-H716 cells; assay type: cell-based, human; conditions: 2 hrs, production amount in TLCA (50 μM) was 100%, Base 11
# Procedure: NCI-H716 (ATCC) was suspended in a medium (Dulbecco's Modified Eagle Medium (DMEM, Invitrogen) supplemented with 10% fetal bovine serum (Invitrogen), 100 U/ml penicillin and 100 μg/ml streptomycin), seeded in a 96 well plate, cultured for 2 days and used for cAMP production assay. As a cAMP assay buffer, modified Krebs-Ringer bicarbonate buffer (KRBH, 116 mM NaCl, 4.7 mM KCl, 1.2 mM KH2PO4, 1.2 MM MgSO4, 2.5 mM CaCl2, 25 mM NaHCO3, 24 mM HEPES pH 7.3), supplemented with glucose 5.5 mM, bovine serum albumin (BSA) 0.1%, and 3-isobutyl-1-methylxanthine (IBMX, Sigma) 1 mM, was used. The cells were washed once with cAMP assay buffer. Bile acids (50 μM) diluted with cAMP assay buffer or the compounds of the present invention (10 μM) were added thereto and the cells were incubated for 2 hrs. The culture supernatant was discarded, and the cAMP production amount was measured by cAMP Screen System (ABI). In the Table, Base means non-addition of a test compound.
# [5] = test system: NCI-H716 cells; assay: GLP-1 secretion from NCI-H716 cell line; assay type: cell-based, human; conditions: 2 hrs, secretion amount in Base was 100%
# Procedure: NCI-H716 cells secrete Glucagon-like peptide-1 (GLP-1). GLP-1 is a peptide useful for controlling blood glucose level because it acts on the pancreas to cause secretion of insulin and the like. In the same manner as in Experimental Example 9, NCI-H716 (ATCC) was seeded in a 96 well plate and, after incubation for 2 days, used for the following secretion test. As a buffer for secretion test, modified Krebs-Ringer bicarbonate buffer (KRBH, 116 mM NaCl, 4.7 mM KCl, 1.2 mM KH2PO4, 1.2 mM MgSO4, 2.5 mM CaCl2, 25 mM NaHCO3, 24 mM HEPES, pH 7.3) supplemented with glucose 5.5 mM and BSA 0.1% was used. The cells were washed once with the buffer for secretion test, preincubated at 37° C. under 5% CO2, bile acid diluted with the buffer for secretion test was added and the cells were cultured at 37° C. under 5% CO2 for 2 hrs. The cell culture supernatant was collected, cryopreserved and the GLP-1 content in the supernatant was measured using a GLP-1 measurement EIA kit (Linco) The results are shown in Table 9. In the Table, Base means non-addition of a test compound.
# [6] = test system: guinea pig TGR5; assay: cAMP production increasing activity in guinea pig TGR5 expressing CHO cells; assay type: cell-based; conditions: test compound 2 μM; 10 μM lithocholic acid = 100%; average of 3 groups
# Procedure: (§2) The guinea pig type TGR5 expressing CHO cells were seeded in one 150 cm^2 flask at 1×10^7 cells, and cultured overnight at 37° C., 5% CO2. After culture, the cells were detached with 0.5 mM EDTA/PBS, washed with PBS, and suspended in Buffer 1 (HBSS+0.1% BSA, 25 mM HEPES pH 7.3, 0.5 mM IBMX) at a density of 1×10^7 cells/ml. The obtained cell suspension (460 μl), anti-cAMP acceptor beads (23 μl) of AlphaScreen cAMP assay kit (Perkin Elmer) and Buffer 1 (667 μl) were mixed and dispensed to a white 96 well plate (Costar) by 10 μl. Then, a test compound diluted with Buffer 1 was added to each well by 10 μl. At this time, one row of the plate was free of the cell suspension but added with anti-cAMP acceptor beads (9 μl) and Buffer 1 (441 μl) alone, and serial dilutions of cAMP were added instead of the test compound and used as the standard. A mixture of the cell suspension and the test compound contained in the plate was allowed to react at room temperature for 30 min. […] The plate was shaken at room temperature for 2.5 hrs and fluorescence intensity was measured by Fusion α (Parkin Elmer), and the cAMP concentration of each well was calculated using the cAMP standard on each plate.
# [7] = molecular target: T3, rat TGR5 (Rattus norvegicus, UniProt Q80T02); assay: cAMP production increasing activity in rat type TGR5 expressing CHO cells; assay type: cell-based; conditions: 0.5 h, read-out: cAMP producing activity (control %)
# T3 construct: expressed in transfected cells; host or cells: CHO cells
# T3 sequence (Q80T02 1-329): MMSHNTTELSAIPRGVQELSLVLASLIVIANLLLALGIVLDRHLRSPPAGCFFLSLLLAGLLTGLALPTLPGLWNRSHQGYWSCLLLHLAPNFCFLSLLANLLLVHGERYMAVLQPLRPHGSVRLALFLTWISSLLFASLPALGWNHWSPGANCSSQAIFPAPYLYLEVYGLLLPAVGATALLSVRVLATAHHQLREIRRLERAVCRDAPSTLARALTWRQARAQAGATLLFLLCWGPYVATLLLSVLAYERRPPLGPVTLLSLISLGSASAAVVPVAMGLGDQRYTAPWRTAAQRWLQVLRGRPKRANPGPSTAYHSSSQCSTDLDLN
# Procedure: as §2, with “After” for “The guinea pig type TGR5 expressing CHO cells were seeded in one 150 cm^2 flask at 1×10^7 cells, and cultured overnight at 37° C., 5% CO2. After”
# [8] = molecular target: T1, human TGR5; assay: cAMP production increasing activity in human TGR5 expressing CHO cells; assay type: cell-based; conditions: read-out: EC50 value (concentration necessary to make the cAMP production amount 50%)
# [9] = test system: THP-TGR5 cells; assay: suppression of LPS induced TNF α secretion in THP-TGR5 cells; assay type: cell-based, human; conditions: bile acid 50 μM, non-addition: 11 with LPS, 2.7 without LPS
# Procedure: TGR5 high expression cells were established by introducing TGR5 gene into human macrophage cells line THP-1. According to a conventional method, pcDNA-TGR5 incorporating cDNA of human TGR5 in pcDNA3.1 (Invitrogen) was prepared. Then, THP-1 was cultured in a medium (RPMI1640 10% FBS), and pcDNA-TGR5 was introduced thereinto using lipofectamine (Gibco BRL) according to conventional methods. Thereafter, G418 (Gibco BRL) was added to the medium to select resistant strains, and cells line, THP-TGR5 that expresses TGR5 stably and highly was established.
# THP-TGR5 thus obtained was diluted to a concentration of 1×10^5/well and cultured overnight in a 96 well plate in the presence of 10^−8M phorbol ester (Wako Pure Chemical Industries, Ltd.). THP-TGR5 after culture was cultured for 1 hr in a medium containing a test compound or a control medium (0.1 ml) free of a test compound, 0.1 ml of a medium containing the same concentration of the test compound or a control medium free of the test compound, each of which containing LPS for induction of TNF α secretion was added (concentration at the time of addition 50 ng/ml) and the mixture was incubated at 37° C. under 5% CO2 for 14 hrs. The culture supernatant was collected and the TNF α content was measured with the growth suppressing effect on the TNF sensitive cell line L929 (RIKEN Institute) as an index.
# L929 cells were seeded in a 96 well plate at 1.2×10^4/well and incubated overnight at 37° C. under 5% CO2. The obtained culture product was cultured overnight in a medium (phenol red free Dulbecco's Modified Eagle Medium (Invitrogen) supplemented with 10% fetal bovine serum (Invitrogen), 100 U/ml penicillin and 100 μg/ml streptomycin), which contained the aforementioned THP-TGR5-containing culture supernatant and 2 μg/ml Actinomycin D (Wako Pure Chemical Industries, Ltd.). The TNF α content was determined by measuring the growth of the L929 cells in the obtained culture product using a Cell Counting Kit-8 (Wako Pure Chemical Industries, Ltd.). As the standard sample, human recombinant TNF α (Genzyme) was used.
smiles,measurement,setting,value
"CC(C)(C)CN1C(=O)C(CC(=O)NCc2ccccc2F)N(C(=O)c2ccncc2)Cc2ccccc21 (centres unmarked) [Example 1B, N-(2-fluorobenzyl)-2-(4-isonicotinoyl-1-neopentyl-2-oxo-2,3,4,5-tetrahydro-1H-1,4-benzodiazepin-3-yl)acetamide]",cAMP production increasing activity (control %),[1],113 control %
same,cAMP production increasing activity,"[2]; Experimental Example 4, Base 0.28",0.23 pmol
same,cAMP production increasing activity (control %),[3],71.2 control %
"O=C(c1cc(C(F)(F)F)cc(C(F)(F)F)c1)N1CCOc2nccc(-c3ccccc3)c2C1 [Example 14C, 4-[3,5-bis(trifluoromethyl)benzoyl]-6-phenyl-2,3,4,5-tetrahydropyrido[3,2-f][1,4]oxazepine]",cAMP production increasing activity (control %),[1],100 control %
same,cAMP production increasing activity,"[2]; Experimental Example 5, Base 0.19",0.17 pmol
same,cAMP production increasing activity (control %),[3],116 control %
"COC(=O)NCc1cccc(C2OC(CC(=O)NCc3ccccc3F)C(=O)N(CC(C)(C)COC(C)=O)c3ccc(Cl)cc32)c1 (stereo not drawn) [Example 46, 3-[3,5-trans-7-chloro-3-[2-[(2-fluorobenzyl)amino]-2-oxoethyl]-5-[3-(methoxycarbonylaminomethyl)phenyl]-2-oxo-2,3-dihydro-4,1-benzoxazepin-1(5H)-yl]-2,2-dimethylpropyl acetate]",cAMP production increasing activity (%),[4]; 10 μM,112%
same,GLP-1 secretion increase (%),[5]; 5 μM,165%
same,cAMP producing activity (control %),[6],77 control %
same,activation at 2 µM,[7],104%
same,EC50,[8],< 0.1 µM
"C[C@H](CCC(=O)O)[C@H]1CC[C@H]2[C@@H]3CC[C@@H]4C[C@H](O)CC[C@]4(C)[C@H]3CC[C@]12C [lithocholic acid, reference compound]",TNF α,[9],1.1 ng/mL
same,cAMP production increasing activity (%),[4]; bile acid 50 μM,107%
same,GLP-1 secretion increase (%),[5]; bile acid 25 μM,121%

# Source: US7625887B2, “Receptor agonists” (Takeda Pharmaceutical Company Limited, priority 2003, dated 2009)
